Measurements from patent US11034650B2, “Compounds useful for treating a Mannheimia haemolytica or Histophilus somni infection” (Intervet Inc., priority 2016, dated 2021).
Converted amounts (≈) assume the structure as drawn.

Key:
Format in all cases: cell-based
[1] = system: Mannheimia haemolytica MH 6357 (M7/2, reference strain, cattle infection strain); assay: MIC, broth-microdilution (CLSI VET01-A4), strain MH 6357; settings: Mannheimia haemolytica strain MH 6357, broth-microdilution; unit assumed
Method in brief: (§1)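 Visual endpoint: the first dilution of a doubling series lacking turbidity gives the MIC; CLSI VET01-S3 interpretive rules applied.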

[2] = system: Mannheimia haemolytica MH 6374 (ATCC 33396, reference strain); assay: MIC, broth-microdilution (CLSI VET01-A4), strain MH 6374; settings: Mannheimia haemolytica strain MH 6374, broth-microdilution; unit assumed
Method in brief: as §1

[3] = system: Mannheimia haemolytica MH 10720 (154, BRD field isolate); assay: MIC, broth-microdilution (CLSI VET01-A4), strain MH 10720; settings: Mannheimia haemolytica strain MH 10720, broth-microdilution; unit assumed
Method in brief: as §1

[4] = system: Mannheimia haemolytica MH 12587 (1071, BRD field isolate, macrolide-resistance: erm+, E+); assay: MIC, broth-microdilution (CLSI VET01-A4), strain MH 12587; settings: Mannheimia haemolytica strain MH 12587, broth-microdilution; unit assumed
Method in brief: as §1

[5] = system: Mannheimia haemolytica MH 13065 (XB0446-6003.9, BRD field isolate); assay: MIC, broth-microdilution (CLSI VET01-A4), strain MH 13065; settings: Mannheimia haemolytica strain MH 13065, broth-microdilution; unit assumed
Method in brief: as §1

[6] = system: Mannheimia haemolytica MH 13093 (XB0472-6014.1, BRD field isolate); assay: MIC, broth-microdilution (CLSI VET01-A4), strain MH 13093; settings: Mannheimia haemolytica strain MH 13093, broth-microdilution; unit assumed
Method in brief: as §1

[7] = system: Pasteurella multocida PM 6267 (P 2225 (L386), reference strain, mouse infection strain); assay: MIC, broth-microdilution (CLSI VET01-A4), strain PM 6267; settings: Pasteurella multocida strain PM 6267, broth-microdilution; unit assumed
Method in brief: as §1

[8] = system: Pasteurella multocida PM 6391 (ATCC 43137, reference strain); assay: MIC, broth-microdilution (CLSI VET01-A4), strain PM 6391; settings: Pasteurella multocida strain PM 6391, broth-microdilution; unit assumed
Method in brief: as §1

[9] = system: Pasteurella multocida PM 10775 (080130003051, BRD field isolate); assay: MIC, broth-microdilution (CLSI VET01-A4), strain PM 10775; settings: Pasteurella multocida strain PM 10775, broth-microdilution; unit assumed
Method in brief: as §1

[10] = system: Pasteurella multocida PM 12080 (IV102277-0093, BRD field isolate); assay: MIC, broth-microdilution (CLSI VET01-A4), strain PM 12080; settings: Pasteurella multocida strain PM 12080, broth-microdilution; unit assumed
Method in brief: as §1

| MIC PM 6267 [7] [µg/mL] | MIC PM 6391 [8] [µg/mL] | MIC PM 10775 [9] [µg/mL] | MIC PM 12080 [10] [µg/mL] | SMILES | MIC MH 6357 [1] [µg/mL] | MIC MH 6374 [2] [µg/mL] | MIC MH 10720 [3] [µg/mL] | MIC MH 12587 [4] [µg/mL] | MIC MH 13065 [5] [µg/mL] | MIC MH 13093 [6] [µg/mL] |
| --- | --- | --- | --- | --- | --- | --- | --- | --- | --- | --- |
| 0.2 (≈ 0.461 µM) | 0.8 (≈ 1.85 µM) | ≤ 0.1 | 0.4 (≈ 0.923 µM) | CC(C)[C@H](NC(=O)c1ccc(C#Cc2ccc(CN3CCCCC3)cc2)cc1)C(=O)NO [Compound 166] | 3.1 (≈ 7.15 µM) | 6.3 (≈ 14.5 µM) | 0.8 (≈ 1.85 µM) | 6.3 (≈ 14.5 µM) | 6.3 (≈ 14.5 µM) | 6.3 (≈ 14.5 µM) |
| 3.1 (≈ 7.61 µM) | 6.3 (≈ 15.5 µM) | 0.2 (≈ 0.491 µM) | 6.3 (≈ 15.5 µM) | O=C(N[C@@H](CO)C(=O)NO)c1ccc(C#Cc2ccc(CN3CCCC3)cc2)cc1 [Compound 145] | 6.3 (≈ 15.5 µM) | 25 (≈ 61.4 µM) | 3.1 (≈ 7.61 µM) | 25 (≈ 61.4 µM) | 12.5 (≈ 30.7 µM) | 12.5 (≈ 30.7 µM) |
| ≤ 0.1 | 0.2 (≈ 0.379 µM) | ≤ 0.1 | ≤ 0.1 | CC(C)([C@H](NC(=O)c1ccc(C#Cc2ccc(CNCC3CCCO3)cc2)cc1)C(=O)NO)S(C)(=O)=O (stereo partly shown) [Compound 273] | 6.3 (≈ 11.9 µM) | 3.1 (≈ 5.88 µM) | 0.8 (≈ 1.52 µM) | 6.3 (≈ 11.9 µM) | 3.1 (≈ 5.88 µM) | 6.3 (≈ 11.9 µM) |
| 0.4 (≈ 0.863 µM) | 1.6 (≈ 3.45 µM) | ≤ 0.1 | 0.8 (≈ 1.73 µM) | CC[C@H](C)[C@H](NC(=O)c1ccc(C#Cc2ccc(CNCC3CCCO3)cc2)cc1)C(=O)NO (stereo partly shown) [Compound 183] | 1.6 (≈ 3.45 µM) | 3.1 (≈ 6.69 µM) | 0.8 (≈ 1.73 µM) | 1.6 (≈ 3.45 µM) | 3.1 (≈ 6.69 µM) | 3.1 (≈ 6.69 µM) |
| ≤ 0.1 | ≤ 0.1 | ≤ 0.1 | ≤ 0.1 | CC[C@H](C)[C@H](NC(=O)c1ccc(C#Cc2ccc(CN3CC(C)OC(C)C3)cc2)cc1)C(=O)NO (stereo partly shown) [Compound 191] | 6.3 (≈ 13.2 µM) | 25 (≈ 52.3 µM) | 1.6 (≈ 3.35 µM) | 25 (≈ 52.3 µM) | 6.3 (≈ 13.2 µM) | 12.5 (≈ 26.2 µM) |
| ≤ 0.1 | ≤ 0.1 | ≤ 0.1 | ≤ 0.1 | CSC(C)(C)[C@H](NC(=O)c1ccc(C#Cc2ccc(CN3CCOCC3)cc2)cc1)C(=O)NO [Compound 238] | 1.6 (≈ 3.32 µM) | 3.1 (≈ 6.44 µM) | 0.8 (≈ 1.66 µM) | 3.1 (≈ 6.44 µM) | 1.6 (≈ 3.32 µM) | 1.6 (≈ 3.32 µM) |

Further lines, the compound ahead of its results:

| SMILES | MIC PM 6267 [7] [µg/mL] | MIC PM 6391 [8] [µg/mL] | MIC PM 10775 [9] [µg/mL] | MIC PM 12080 [10] [µg/mL] | MIC MH 6357 [1] [µg/mL] | MIC MH 6374 [2] [µg/mL] | MIC MH 10720 [3] [µg/mL] | MIC MH 12587 [4] [µg/mL] | MIC MH 13065 [5] [µg/mL] | MIC MH 13093 [6] [µg/mL] |
| --- | --- | --- | --- | --- | --- | --- | --- | --- | --- | --- |
| CC(C)([C@H](NC(=O)c1ccc(C#Cc2ccc(CNC3CC3)cc2)cc1)C(=O)NO)S(C)(=O)=O [C.255] | ≤ 0.1 | ≤ 0.1 | ≤ 0.1 | ≤ 0.1 | 0.8 (≈ 1.65 µM) | 0.4 (≈ 0.827 µM) | ≤ 0.1 | 1.6 (≈ 3.31 µM) | 0.4 (≈ 0.827 µM) | 0.8 (≈ 1.65 µM) |
| CC(C)([C@H](NC(=O)c1ccc(C#Cc2ccc(CNCc3ccncc3)cc2)cc1)C(=O)NO)S(C)(=O)=O [C.261] | ≤ 0.1 | ≤ 0.1 | ≤ 0.1 | ≤ 0.1 | 0.4 (≈ 0.748 µM) | 0.4 (≈ 0.748 µM) | ≤ 0.1 | 0.8 (≈ 1.5 µM) | 0.4 (≈ 0.748 µM) | 0.4 (≈ 0.748 µM) |
| CSC(C)(C)[C@H](NC(=O)c1ccc(C#Cc2ccc(CNCc3ccccc3)cc2)cc1)C(=O)NO [Compound 239] | 0.2 (≈ 0.399 µM) | 0.4 (≈ 0.797 µM) | ≤ 0.1 | 0.4 (≈ 0.797 µM) | 0.8 (≈ 1.59 µM) | 1.6 (≈ 3.19 µM) | 0.2 (≈ 0.399 µM) | 1.6 (≈ 3.19 µM) | 0.8 (≈ 1.59 µM) | 0.8 (≈ 1.59 µM) |
| CC(C)([C@H](NC(=O)c1ccc(C#Cc2ccc(CNCc3cccnc3)cc2)cc1)C(=O)NO)S(C)(=O)=O [C.267] | ≤ 0.1 | ≤ 0.1 | ≤ 0.1 | ≤ 0.1 | 0.8 (≈ 1.5 µM) | 0.4 (≈ 0.748 µM) | ≤ 0.1 | 1.6 (≈ 2.99 µM) | 0.8 (≈ 1.5 µM) | 0.8 (≈ 1.5 µM) |
